Experimental data from BindingDB's records for doi:10.1080/14756360801945598 (Quaid-I-Azam University, 2009).

Molecular target: Urease (Canavalia ensiformis, UniProt P07374)
Assay: Inhibition Assay
Description: In vitro inhibition assay using jack bean urease.

Urease, sequence (P07374 whole entry): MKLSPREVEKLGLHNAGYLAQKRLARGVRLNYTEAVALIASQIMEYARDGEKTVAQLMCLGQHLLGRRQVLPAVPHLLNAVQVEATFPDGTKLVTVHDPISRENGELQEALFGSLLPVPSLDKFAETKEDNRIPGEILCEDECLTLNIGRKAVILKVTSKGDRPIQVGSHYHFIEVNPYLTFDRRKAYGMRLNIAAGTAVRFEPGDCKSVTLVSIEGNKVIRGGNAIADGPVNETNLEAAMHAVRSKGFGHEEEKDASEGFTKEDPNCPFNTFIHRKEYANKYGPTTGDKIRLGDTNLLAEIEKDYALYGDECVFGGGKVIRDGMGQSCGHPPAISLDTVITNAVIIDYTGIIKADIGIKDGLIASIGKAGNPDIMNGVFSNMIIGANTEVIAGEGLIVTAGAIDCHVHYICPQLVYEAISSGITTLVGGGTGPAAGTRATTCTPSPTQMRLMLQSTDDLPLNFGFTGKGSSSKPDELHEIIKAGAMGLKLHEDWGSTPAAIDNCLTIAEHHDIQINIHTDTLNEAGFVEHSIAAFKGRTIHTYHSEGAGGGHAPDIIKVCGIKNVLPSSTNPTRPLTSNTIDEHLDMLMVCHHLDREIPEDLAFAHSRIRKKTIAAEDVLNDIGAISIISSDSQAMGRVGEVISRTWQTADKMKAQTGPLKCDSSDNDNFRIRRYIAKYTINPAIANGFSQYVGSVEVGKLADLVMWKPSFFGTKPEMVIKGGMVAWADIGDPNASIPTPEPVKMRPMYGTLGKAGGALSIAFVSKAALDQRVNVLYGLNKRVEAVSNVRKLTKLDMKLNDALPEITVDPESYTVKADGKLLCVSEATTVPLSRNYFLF

| Compound | IC50 |
| --- | --- |
| Oc1ccccc1C1CC(c2ccccc2)Sc2ccccc2N1 [2,3,4,5-Tetrahydro-1,5-benzothiazepine analog (2S,4R), 6] | 91.2 µM |
| Oc1ccccc1C1CC(c2ccc(F)cc2)Sc2ccccc2N1 [2,3,4,5-Tetrahydro-1,5-benzothiazepine analog (2S,4R), 7] | 93.7 µM |
| c1ccc(C2=Nc3ccccc3SC(c3ccccc3)C2)cc1 (stereo unspecified) [Dihydro-1,5-benzothiazepine analog, 2] | 26.3 µM |
| Cc1ccc(C2CC(c3ccccc3)=Nc3ccccc3S2)cc1 (stereo unspecified) [Dihydro-1,5-benzothiazepine analog, 3] | 24.6 µM |
| O=COc1ccc(C2CC(c3ccccc3O)=Nc3ccccc3S2)cc1OC=O (stereo unspecified) [Dihydro-1,5-benzothiazepine analog, 4] | 19.1 µM |
| O=[N+]([O-])c1ccc(C2CC(c3ccccc3)=Nc3ccccc3S2)cc1 (stereo unspecified) [Dihydro-1,5-benzothiazepine analog, 5] | 36.7 µM |
